Reference: patent US9655846B2, “Methods for the preparation of liposomes comprising drugs” (priority 2009, dated 2017)

Experiments:
[1] = Stability upon dilution or storage, by reverse phase HPLC; type: physicochemical; details: for time docetaxel remained soluble and formulation stable upon dilution: RP-HPLC
Description: Docetaxel (5 mg) was added to 31 μL of oleic acid and mixed using a VORTEX®. Ethanolamine (6 μL) was subsequently added and mixed using a VORTEX®. After mixing, the sample was dispersed in 963 μL of water for injection. Docetaxel was soluble and the formulation clear at 5 mg/mL. Docetaxel remained soluble, and the formulation was stable, upon dilution (1:10 in 2.5% glycerol) up to 24 hours as analyzed by a reverse phase high performance liquid chromatography method.
(§1) Docetaxel (5.0 mg) was added to 1 mL of 0.05 M sodium oleate and mixed using a VORTEX®. Docetaxel was soluble and the formulation clear at 5.0 mg/mL. Docetaxel remained soluble, and the formulation was stable, upon dilution (1:10 in 2.5% glycerol) up to 24 hours as analyzed by a reverse phase high performance liquid chromatography method.
as §1, with “(2” for “(5.0”, “1” for “0.05”, “caprylate” for “oleate”, “by” for “using”, “2” for “5.0”, “(1:2” for “(1:10 in”
as §1, with “(7.0” for “(5.0”, “1” for “0.05”, “linoleate” for “oleate”, “7.0” for “5.0”, “(1:10” for “(1:10 in”
Docetaxel (5 mg) was added to 1 mL of pre-made liposome containing 2 mM sodium oleate and 6% soy phosphatidyl choline, 10% trehalose, pH adjusted to 5-7 using Acetic acid, mixed using a VORTEX®, and microfluidized using a Microfluidizer with 10 passes at 15,000 psi. Five additional passes with the Microfluidizer at 15,000 psi were made to incorporate all 5 mg of the drug into 1 mL of pre-made liposome. Docetaxel was soluble and the formulation was transparent at 5 mg/mL. Docetaxel remained soluble, and the formulation was stable, upon dilution (1:10 in D5W) up to 48 hours as analyzed by a reverse phase high performance liquid chromatography method.
Hydrophobic or lipophilic compounds can be solubilized directly in sodium (or any ion) salt of fatty acid dissolved in an organic solvent. The organic solvent is subsequently removed using rotary evaporation, spray drying, or any other pharmaceutically acceptable processes. The drug-sodium salt of fatty acid mixture is subsequently dispersed in water, isotonic glycerol, or any pharmaceutically acceptable isotonic solution to achieve a desired concentration of the solubilized compound. For example, docetaxel (5 mg/mL) was dissolved in 100 mM sodium oleate in 100% ethanol. Ethanol was completely evaporated using rotary evaporation at 20° C. The docetaxel-sodium oleate was reconstituted with Water For Injection (“WFI”) or 2.5% glycerol to provide 5 mg/mL, 10 mg/mL, or 20 mg/mL concentration of docetaxel.
50 μl of Docetaxel in ethanol (100 mg/mL) was added to 1 mL of pre-made liposome containing 2 mM sodium oleate and 6% soy phosphatidyl choline, 10% trehalose and pH adjusted to 5-7 using Acetic acid, mixed using a VORTEX® and microfluidized using a Microfluidizer with 10 passes at 15,000 psi. Docetaxel was soluble and the formulation is transparent at 5 mg/mL. Docetaxel remained soluble, and the formulation was stable, upon dilution (1:10 in D5W) up to 48 hours as analyzed by a reverse phase high performance liquid chromatography method. […] The lyophilized product is reconstituted with water for injection at 5 mg, 10, or 20 mg/ml, concentration, essentially free of organic solvent.

[2] = Incorporation of docetaxel into liposome; type: physicochemical; details: docetaxel added after liposome preparation vs conventional process
Description: As provided herein, the sequence of the addition of docetaxel results in enhanced solubility of the docetaxel. The conventional method of incorporating a hydrophobic drug into liposome is by adding the drug to lipid before liposome preparation. See, e.g., Immordino, M. L. et al., Journal of Controlled Release, 2003, 91: 417-429. By the conventional process, the incorporation of the drug is only 0.3 to 0.7 mg/mL. When docetaxel is added after liposome preparation, the incorporation of docetaxel is increased from 0.3 mg/mL to 5 mg/mL, which is more than 10 fold increase in solubility of the drug in lipid alone.
In the conventional liposome preparation, the drug to lipid molar percent ratio is 4-6% with the incorporation of drug into liposome efficiency is only 56%. See Immordino, M. L. et al., Journal of Controlled Release, 2003, 91: 417-429.

time docetaxel remained soluble and formulation stable upon dilution ([1]; Example 6 oleic acid formulation, dilution 1:10 in 2.5% glycerol): up to 24 hours
time docetaxel remained soluble and formulation stable upon dilution ([1]; Example 7 sodium oleate formulation, dilution 1:10 in 2.5% glycerol): up to 24 hours
time docetaxel remained soluble and formulation stable upon dilution ([1]; Example 8 sodium caprylate formulation, dilution 1:2 2.5% glycerol): up to 24 hours
time docetaxel remained soluble and formulation stable upon dilution ([1]; Example 9 sodium linoleate formulation, dilution 1:10 2.5% glycerol): up to 24 hours
time docetaxel remained soluble and formulation stable upon dilution ([1]; Example 10 oleate liposome formulation, dilution 1:10 in D5W): up to 48 hours
stability of the lyophilized formulation ([1]; Example 10 oleate liposome formulation): stable for more than a year
time docetaxel remained soluble and formulation stable upon dilution ([1]; Example 12 nanosome-oleate formulation, dilution 1:10 in D5W): up to 48 hours
stability of the lyophilized formulation ([1]; Example 12 nanosome-oleate formulation): stable for more than a year
increase in solubility of the drug over lipid alone [2]: more than 10 fold
Structure (SMILES): CC(=O)O[C@@]12CO[C@@H]1C[C@H](O)[C@@]1(C)C(=O)[C@H](O)C3=C(C)[C@@H](OC(=O)[C@H](O)[C@@H](NC(=O)OC(C)(C)C)c4ccccc4)C[C@@](O)([C@@H](OC(=O)c4ccccc4)[C@H]21)C3(C)C [Docetaxel, docetaxel]
time reconstituted docetaxel remained in solution ([1]; Example 11: docetaxel-sodium oleate reconstituted with WFI or 2.5% glycerol to 5, 10 or 20 mg/mL): remained in solution for 2 hours, 4 hours, 6 hours, 8 hours or 24 hours
